For four molecules, TGI results are on record in PubChem BioAssay (NCI).

Test systems include DMS 273 small cell lung; M19-MEL melanoma; EKVX NSCLC; NCI-H460 lung; K-562 leukemia; SNB-19 CNS; M14 melanoma; RXF 393 renal; SK-OV-3 ovarian.
What all share (test): inhibition of tumour cell growth, NCI panel, 48 h

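A five-concentration, 48-hour dose response in 96-well plates underlies each endpoint, interpolated linearly between surrounding concentrations. TGI: total growth inhibition.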

Take `c1ccc(C2=NOC3(c4ccccc4)SC4CCCCC4CN23)cc1` (stereo unspecified): the TGI with DMS 273 small cell lung was 77.3 µM; with M19-MEL melanoma, over 100 µM; with EKVX NSCLC, over 100 µM; in the assay with NCI-H460 lung, over 100 µM; with K-562 leukemia, over 100 µM; with SNB-19 CNS it was over 100 µM. Moreover, the TGI with M14 melanoma is 49.3 µM; in the assay on RXF 393 renal, 71.2 µM; in the assay with SK-OV-3 ovarian it was over 100 µM.
Take `COc1ccc(C2Oc3cc(OC)c(O)c(C)c3[C@H]2C)cc1` (stereo partly specified): the TGI in the assay on DMS 273 small cell lung, in the assay on M19-MEL melanoma, in the assay on EKVX NSCLC, in the assay on NCI-H460 lung, in the assay on K-562 leukemia and in the assay with SNB-19 CNS was over 100 µM in each case. Moreover, the TGI with M14 melanoma, in the assay with RXF 393 renal and in the assay on SK-OV-3 ovarian was over 100 µM each time.
As for `C=C1C(=O)OC2/C=C(/C)C3CC(O)C(C)(CC(OC(=O)/C(C)=C/C)C12)O3` (stereo unspecified), the TGI in the assay with DMS 273 small cell lung was 8.8 µM; with M19-MEL melanoma, 9.57 µM; in the assay on EKVX NSCLC, 14.5 µM; with NCI-H460 lung, 18.3 µM; with K-562 leukemia it was over 28.8 µM; with SNB-19 CNS it was 30.8 µM. Further, the figures for the TGI with M14 melanoma, in the assay on RXF 393 renal and with SK-OV-3 ovarian were 9.08 µM, 3.49 µM and over 65.2 µM, respectively.
Turning to `CN(CCO)c1nc(N)cc(=O)[nH]1`, the TGI in the assay with DMS 273 small cell lung, in the assay on M19-MEL melanoma, in the assay on EKVX NSCLC, in the assay on NCI-H460 lung, with K-562 leukemia and in the assay with SNB-19 CNS was over 100 µM in each case. Also, the TGI in the assay on M14 melanoma, in the assay on RXF 393 renal and with SK-OV-3 ovarian was over 100 µM in each case.
